Test results taken from US20110088107A1, “COMPOSITIONS AND METHODS FOR DERIVING OR CULTURING PLURIPOTENT CELLS” (priority 2009, published 2011).

Columns and labels:
[1] = test system: hESCs; assay: Signaling dependence of pluripotent cell lines, conventional hESCs; format: cell-based, human; conditions: normal growth medium, inhibitor or factor added
Method: Pluripotent cells were equally divided and plated on feeders in the indicated growth medium in which these cell lines are normally maintained, and 36 hours later the wells were supplemented with the indicated inhibitors or growth factors. After seven days, wells were fixed and stained to determine the relative percentage of colonies positive for pluripotency markers. SSEA1 staining was used for mouse stem cells. Colony formation was normalized to an internal control “Growth medium” without inhibitors (first left column). […] (B-C) Western blot analysis of total ERK1/2, phosphorylated ERK1/2 (pERK1/2) and phosphorylated Stat3 (pStat3). WIBR3 hESC and C1 hiPSC were grown in traditional bFGF/Activin containing media while naive-hESC/hiPSCs were grown in N2B27 PD/CH/FOR/LIF. ‘2×LIF’ indicates two fold increase in LIF concentration. […] Cells were passaged three times in the presence of puromycin. […] (E) RT-PCR expression of early germ cell markers in the presence or absence of BMP4/7/8 cytokines for 7 days. (F) Representative FISH analysis for XIST RNA (red) and Cot1 nuclear RNA (green). Pri-WIBR3.2 cell line was analyzed after passaging in conventional bFGF/serum-containing human ESC growth conditions.

[2] = test system: naive-hESCs/hiPSCs; assay: Signaling dependence of pluripotent cell lines, naive-hESC/hiPSC; format: cell-based, human; conditions: grown in PD/CH/FK/LIF, inhibitor or factor added
Method: (§1) Pluripotent cells were equally divided and plated on feeders in the indicated growth medium in which these cell lines are normally maintained, and 36 hours later the wells were supplemented with the indicated inhibitors or growth factors. After seven days, wells were fixed and stained to determine the relative percentage of colonies positive for pluripotency markers. SSEA1 staining was used for mouse stem cells. Colony formation was normalized to an internal control “Growth medium” without inhibitors (first left column). Normalized percentages lower than 5% are defined as “sensitivity” to the presence of the supplemented inhibitor. (B-C) Western blot analysis of total ERK1/2, phosphorylated ERK1/2 (pERK1/2) and phosphorylated Stat3 (pStat3). WIBR3 hESC and C1 hiPSC were grown in traditional bFGF/Activin containing media while naive-hESC/hiPSCs were grown in N2B27 PD/CH/FOR/LIF. ‘2×LIF’ indicates two fold increase in LIF concentration. (D) LIF/Stat3 is required for stabilization of naive-hESC/hiPSCs. Naïve NOD mESCs, WIBR3.5 and WIBR3.1 naive-hESC, and C1 naïve-hiPSCs were electroporated with a pBRY-CAGGS-flox-DsRedT4-IP control plasmid, a plasmid encoding a dominant negative Stat3 Y705F mutant (Stat3-DN), or a plasmid Stat3-C constitutively active mutant (pBRY-Stat3-CA). Cells were passaged three times in the presence of puromycin. After 20 days, colonies positive for pluripotency markers were counted and normalized to colonies from cells electroporated with empty vector (n=3 replicates for each condition). (E) RT-PCR expression of early germ cell markers in the presence or absence of BMP4/7/8 cytokines for 7 days. (F) Representative FISH analysis for XIST RNA (red) and Cot1 nuclear RNA (green). Pri-WIBR3.2 cell line was analyzed after passaging in conventional bFGF/serum-containing human ESC growth conditions. Numbers indicate average percentage of XIST positive nuclei counted.
(§2) Small molecules and cytokines were purchased from Tocris, Calbiochem or Sigma, and were supplemented as indicated at the following final concentration: JAK inhibitor (JAKi, 6 μM), Kenpaullone (KP, 5 μM), PD0325901 (PD, 1 μM); CHIR99021 (CH, […]), Forskolin (FK, 10 μM), FGF4-Receptor inhibitors PD173074 (0.1 μM) and SU5401 (2 μM); TGFβ/ALK inhibitors A83-01 (1 μM), RepSox (1 μM), ALK inhibitor (ALKi—SB431542, 2 μM); AICAR (0.5 mM); BixO1294 (1 μM); BayK8644 (1 μM); recombinant human BMP4 (10 ng/ml), recombinant human IL-6 (10 ng/ml), recombinant human TGFβ (500 ng/ml), Media with inhibitors was routinely replaced every 48 hours to sustain activity of compounds.

[3] = test system: mESCs; assay: Signaling dependence of pluripotent cell lines, mESCs; format: cell-based, mouse; conditions: normal growth medium, inhibitor or factor added
Method: Pluripotent cells were equally divided and plated on feeders in the indicated growth medium in which these cell lines are normally maintained, and 36 hours later the wells were supplemented with the indicated inhibitors or growth factors. After seven days, wells were fixed and stained to determine the relative percentage of colonies positive for pluripotency markers. SSEA1 staining was used for mouse stem cells. Colony formation was normalized to an internal control “Growth medium” without inhibitors (first left column). Normalized percentages lower than 5% are defined as “sensitivity” to the presence of the supplemented inhibitor. (B-C) Western blot analysis of total ERK1/2, phosphorylated ERK1/2 (pERK1/2) and phosphorylated Stat3 (pStat3). WIBR3 hESC and C1 hiPSC were grown in traditional bFGF/Activin containing media while naive-hESC/hiPSCs were grown in N2B27 PD/CH/FOR/LIF. ‘2×LIF’ indicates two fold increase in LIF concentration. (D) LIF/Stat3 is required for stabilization of naive-hESC/hiPSCs. Naïve NOD mESCs, WIBR3.5 and WIBR3.1 naive-hESC, and C1 naïve-hiPSCs were electroporated with a pBRY-CAGGS-flox-DsRedT4-IP control plasmid, a plasmid encoding a dominant negative Stat3 Y705F mutant (Stat3-DN), or a plasmid Stat3-C constitutively active mutant (pBRY-Stat3-CA). Cells were passaged three times in the presence of puromycin. After 20 days, colonies positive for pluripotency markers were counted and normalized to colonies from cells electroporated with empty vector (n=3 replicates for each condition). (E) RT-PCR expression of early germ cell markers in the presence or absence of BMP4/7/8 cytokines for 7 days. (F) Representative FISH analysis for XIST RNA (red) and Cot1 nuclear RNA (green). Pri-WIBR3.2 cell line was analyzed after passaging in conventional bFGF/serum-containing human ESC growth conditions. Numbers indicate average percentage of XIST positive nuclei counted. […]

[4] = test system: 129 EpiSC cells; assay: Dependence of pluripotency on signaling pathways, EpiSC; format: cell-based, mouse; conditions: epiESM, Day 6
Method: (§3) FIG. 21 illustrates the dependence of pluripotency states on distinct signaling pathways. 129 mES or EpiSC cell samples were equally divided and plated on irradiated MEFs in the indicated growth conditions (mESM or epiESM) in which these cell lines are normally maintained, and 24 hours later the wells were supplemented with either JAKi or ALKi or were kept without any inhibitor. Representative images at Day 6 of the experiment are shown. EpiSC cells as previously described, differentiated upon introduction of ALK inhibitors, while mES cells differentiate upon blocking of Stat3 signaling by the JAK inhibitor.

[5] = test system: mEpiSCs; assay: Signaling dependence of pluripotent cell lines, mEpiSCs; format: cell-based, mouse; conditions: normal growth medium, inhibitor or factor added
Method: as §1, §2

[6] = test system: naive human pluripotent stem cells; assay: Long-term propagation of naive human pluripotent stem cells; format: cell-based; conditions: genetically unmodified forskolin-dependent naive cells
Method: Naïve human pluripotent cells were grown in serum-free N2B27 based media. 500 ml of media was generated by including: 240 ml of DMEM/F12 (Invitrogen #11320), 240 ml of Neurobasal media (Invitrogen #21103), 5 ml of N2 supplement (Invitrogen #17502048), 10 ml B27 supplement (17504044), 10 μg of recombinant human LIF (Millipore, LIF1005), 1 mM glutamine (Invitrogen), 1% nonessential amino acids (Invitrogen), 0.1 mM β-mercaptoethanol (Sigma), pen/strep (Invitrogen), 5 mg/ml bovine serum albumin (Sigma) and small molecule inhibitors as indicated. Naïve-hESCs/hiPSCs were kept on mitomycin C (MMC)-inactivated mouse embryonic fibroblast (MEF) feeder cells, unless indicated otherwise, and where passage by single cell trypsinization every 5-10 days. Throughout the manuscript, indicated passage numbers of naïve-hiPSC/hESCs indicates number of passages counted after induction of the naïve state. The C1 secondary fibroblast cells (19), harbors Doxycycline (DOX) lentiviral vectors encoding Oct4, Sox2 and Klf4 reprogramming factors (45) and a constitutively active lentivirus encoding the reverse tetracycline transactivator (19), were grown in the presence of Dox in N2B27 media supplemented with different inhibitor combinations on gelatin coated plates, until initial PSC colonies were observed and subcloned. Mouse EpiSCs were derived and propagated as previously described (3,4). […]

[7] = test system: 129 mES cells; assay: Dependence of pluripotency on signaling pathways, 129 mES; format: cell-based, mouse; conditions: mESM, Day 6
Method: as §3

[8] = test system: VASA, BLIMP1 and DAZL in naive-hESCs; assay: RT-PCR of early germ cell markers, naive-hESCs; format: cell-based, human; conditions: 7 days
Method: (§4) Pluripotent cells were equally divided and plated on feeders in the indicated growth medium in which these cell lines are normally maintained, and 36 hours later the wells were supplemented with the indicated inhibitors or growth factors. After seven days, wells were fixed and stained to determine the relative percentage of colonies positive for pluripotency markers. SSEA1 staining was used for mouse stem cells. Colony formation was normalized to an internal control “Growth medium” without inhibitors (first left column). Normalized percentages lower than 5% are defined as “sensitivity” to the presence of the supplemented inhibitor. (B-C) Western blot analysis of total ERK1/2, phosphorylated ERK1/2 (pERK1/2) and phosphorylated Stat3 (pStat3). WIBR3 hESC and C1 hiPSC were grown in traditional bFGF/Activin containing media while naive-hESC/hiPSCs were grown in N2B27 PD/CH/FOR/LIF. ‘2×LIF’ indicates two fold increase in LIF concentration. (D) LIF/Stat3 is required for stabilization of naive-hESC/hiPSCs. […] After 20 days, colonies positive for pluripotency markers were counted and normalized to colonies from cells electroporated with empty vector (n=3 replicates for each condition). […] Pri-WIBR3.2 cell line was analyzed after passaging in conventional bFGF/serum-containing human ESC growth conditions. Numbers indicate average percentage of XIST positive nuclei counted. […]

[9] = test system: VASA, BLIMP1 and DAZL in hESCs; assay: RT-PCR of early germ cell markers, hESCs; format: cell-based, human; conditions: 7 days
Method: as §4

Compound | effect on pluripotency of conventional hESCs [1] | effect on pluripotency of naive-hESCs/hiPSCs [2] | effect on pluripotency of mESCs [3] | effect on pluripotency of EpiSC cells [4] | effect on pluripotency of mEpiSCs [5] | number of passages cells could be maintained [6] | effect on pluripotency of 129 mES cells [7] | activation of germ cell markers VASA, BLIMP1 and DAZL in naive-hESCs [8] | activation of germ cell markers VASA, BLIMP1 and DAZL in hESCs [9]
NC(=O)c1ccc(-c2nc(-c3ccc4c(c3)OCO4)c(-c3ccccn3)[nH]2)cc1 [ALKi] | rapidly differentiated | maintained their pluripotent state | maintained their pluripotent state | differentiated | rapidly differentiated |  |  |  | 
C=C[C@@]1(C)CC(=O)[C@]2(O)[C@@]3(C)[C@@H](O)CCC(C)(C)[C@@H]3[C@H](O)[C@H](OC(C)=O)[C@@]2(C)O1 [Forskolin] |  |  |  |  |  | 15-20 passages |  |  | 
CC(C)(C)c1nc2c3cc[nH]c(=O)c3c3cc(F)ccc3c2[nH]1 [JAKi] | resistant | readily differentiated |  |  |  |  | differentiate |  | 
BMP4: recombinant human BMP4 growth factor | resulted in the differentiation | but not of naive-hESCs/hiPSCs or mESCs |  |  | resulted in the differentiation |  |  | no up-regulation | readily activated
